In paper PMC7167818, “Addition of K22 Converts Spider Venom Peptide Pme2a from an Activator to an Inhibitor of NaV1.7” (Biomedicines, 2020):
Entries after “also recorded” stand apart in the source; their conditions may differ. Bridge positions count the residues as written; N and C are the ends. Peptide text beside a SMILES is read from it.

Tests used:
hNaV1.7/β1 [1] = target: T1, hNaV1.7/β1 (Homo sapiens, UniProt Q15858); assay: Whole-cell automated patch-clamp, peak current at hNaV1.7; format: cell-based
T1 sequence (Q07699 19-218): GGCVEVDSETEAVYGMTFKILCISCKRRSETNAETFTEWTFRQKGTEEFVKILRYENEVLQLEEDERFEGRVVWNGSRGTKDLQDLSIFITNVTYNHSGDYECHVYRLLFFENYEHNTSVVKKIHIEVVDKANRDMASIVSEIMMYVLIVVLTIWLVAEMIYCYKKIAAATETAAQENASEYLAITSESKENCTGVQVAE
T1 sequence (Q15858 whole entry): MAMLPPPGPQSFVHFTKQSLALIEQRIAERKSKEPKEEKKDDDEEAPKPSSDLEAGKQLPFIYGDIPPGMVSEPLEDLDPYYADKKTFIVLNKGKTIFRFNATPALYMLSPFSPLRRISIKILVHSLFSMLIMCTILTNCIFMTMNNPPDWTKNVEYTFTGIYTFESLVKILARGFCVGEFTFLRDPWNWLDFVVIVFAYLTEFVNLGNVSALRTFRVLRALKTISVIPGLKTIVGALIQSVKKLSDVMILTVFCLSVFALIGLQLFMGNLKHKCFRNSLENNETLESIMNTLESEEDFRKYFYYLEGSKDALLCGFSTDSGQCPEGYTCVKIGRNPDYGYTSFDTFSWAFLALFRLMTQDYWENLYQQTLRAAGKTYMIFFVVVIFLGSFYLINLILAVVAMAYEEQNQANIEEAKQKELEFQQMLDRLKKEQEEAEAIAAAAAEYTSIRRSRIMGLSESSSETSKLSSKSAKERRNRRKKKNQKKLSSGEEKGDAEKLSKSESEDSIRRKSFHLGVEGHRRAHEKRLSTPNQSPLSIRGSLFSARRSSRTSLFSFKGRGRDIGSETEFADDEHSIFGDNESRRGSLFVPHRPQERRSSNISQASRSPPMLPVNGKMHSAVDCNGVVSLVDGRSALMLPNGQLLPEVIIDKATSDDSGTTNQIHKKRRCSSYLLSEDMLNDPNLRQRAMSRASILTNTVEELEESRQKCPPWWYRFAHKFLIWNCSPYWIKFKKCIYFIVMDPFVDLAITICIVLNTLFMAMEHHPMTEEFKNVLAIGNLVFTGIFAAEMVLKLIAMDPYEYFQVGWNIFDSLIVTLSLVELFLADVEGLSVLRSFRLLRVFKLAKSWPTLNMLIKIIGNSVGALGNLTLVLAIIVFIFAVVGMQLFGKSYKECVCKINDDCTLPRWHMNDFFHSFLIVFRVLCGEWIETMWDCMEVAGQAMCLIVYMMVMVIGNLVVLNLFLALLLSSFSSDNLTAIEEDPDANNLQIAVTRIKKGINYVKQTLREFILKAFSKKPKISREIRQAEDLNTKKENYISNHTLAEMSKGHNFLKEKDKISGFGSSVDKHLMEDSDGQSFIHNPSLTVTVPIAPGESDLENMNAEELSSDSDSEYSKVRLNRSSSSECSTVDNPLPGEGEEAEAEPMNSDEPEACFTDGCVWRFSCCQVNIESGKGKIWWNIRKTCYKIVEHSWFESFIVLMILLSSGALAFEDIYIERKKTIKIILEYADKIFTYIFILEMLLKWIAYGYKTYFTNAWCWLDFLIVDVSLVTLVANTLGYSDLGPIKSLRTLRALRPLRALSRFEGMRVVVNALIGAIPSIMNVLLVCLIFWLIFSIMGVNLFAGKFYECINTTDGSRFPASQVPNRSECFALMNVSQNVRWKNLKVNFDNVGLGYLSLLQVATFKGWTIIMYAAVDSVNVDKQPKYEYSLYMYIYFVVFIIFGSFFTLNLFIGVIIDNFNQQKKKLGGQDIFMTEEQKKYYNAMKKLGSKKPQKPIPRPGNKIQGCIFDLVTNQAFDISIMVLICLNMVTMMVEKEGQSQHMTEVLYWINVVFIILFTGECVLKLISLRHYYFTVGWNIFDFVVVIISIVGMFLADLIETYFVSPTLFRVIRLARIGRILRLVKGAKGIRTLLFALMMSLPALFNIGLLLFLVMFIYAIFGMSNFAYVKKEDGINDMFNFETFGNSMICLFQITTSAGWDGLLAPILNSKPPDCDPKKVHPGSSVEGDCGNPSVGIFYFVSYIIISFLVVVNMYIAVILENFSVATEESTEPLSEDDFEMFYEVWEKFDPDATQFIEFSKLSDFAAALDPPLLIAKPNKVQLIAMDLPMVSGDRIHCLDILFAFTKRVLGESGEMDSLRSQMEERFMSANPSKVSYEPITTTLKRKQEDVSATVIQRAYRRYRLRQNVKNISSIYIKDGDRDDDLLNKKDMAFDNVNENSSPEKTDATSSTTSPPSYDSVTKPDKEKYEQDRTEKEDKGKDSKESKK
Procedure: (§1) Human Embryonic Kidney (HEK) 293 cells stably expressing human NaV1.7/β1 (SB Drug Discovery, Glasgow, UK) were cultured in Minimum Essential Medium (MEM) supplemented with 10% fetal bovine serum (FBS), 2 mM L-glutamine, and the selection antibiotics G-418 (0.6 mg/mL) and blasticidin (4 μg/mL), as recommended by the manufacturer. Chinese Hamster Ovary (CHO) cells stably expressing human NaV1.8/β3 in a tetracycline-inducible system (ChanTest, Cleveland, OH, USA) were cultured in MEM supplemented with 10% FBS and 2 mM L-glutamine. Expression of hNaV1.8 was induced by the addition of tetracycline (1 μg/mL) for 48–72 h prior to assays. HEK293 cells stably expressing rat transient receptor potential vanilloid 1 (TRPV1) were cultured in Dulbecco’s Modified Eagle Medium (DMEM) containing 10% FBS under selection with hygromycin B (100 μg/mL), generated as previously described. Cells were grown in an incubator at 37 °C with 5% CO2 and passaged every 3–4 days (at 70%–80% confluency) using TrypLE Express (Thermo Fisher Scientific, Scoresby, VIC, Australia).
(§2) Whole-cell patch-clamp experiments in NaV1.7-HEK cells and NaV1.8-CHO cells were performed on a QPatch-16 automated electrophysiology platform (Sophion Bioscience, Ballerup, Denmark) as previously described. The extracellular solution contained in mM: NaCl 140, KCl 4, CaCl2 2, MgCl2 1, HEPES 10 and glucose 10; pH 7.4; osmolarity 305 mOsm. The intracellular solution contained in mM: CsF 140, EGTA/CsOH 1/5, HEPES 10 and NaCl 10; pH 7.3 with CsOH; osmolarity 320 mOsm. Concentration–response curves were acquired using a holding potential of −90 mV and a 50 ms pulse to −20 mV (for NaV1.7) or +10 mV (for NaV1.8) every 20 s (0.05 Hz). Peptides were diluted in extracellular solution with 0.1% BSA and each peptide concentration was incubated for 5 min. Peak current was normalized to buffer control. The time constant of fast inactivation (τ) was computed by fitting the current decay traces with a single exponential function using the QPatch Assay Software 5.6 (Sophion). […]
(§3) Data were plotted and analysed using GraphPad Prism, version 8.2.0. […]

hNaV1.7/β1 [2] = target: T1, hNaV1.7/β1; assay: Voltage dependence of activation at hNaV1.7 (conductance-voltage curves, patch-clamp); format: cell-based; conditions: 1 μM, 5 min incubation; holding −90 mV, 500 ms steps −110 to +55 mV in 5 mV increments; Boltzmann fit; n = 3–6 cells per data point
Procedure: as §1
(§4) Whole-cell patch-clamp experiments in NaV1.7-HEK cells and NaV1.8-CHO cells were performed on a QPatch-16 automated electrophysiology platform (Sophion Bioscience, Ballerup, Denmark) as previously described. […]
as §3

hNaV1.8/β3 = assay: Whole-cell automated patch-clamp, peak current at hNaV1.8; format: cell-based, human; conditions: 10 μM; 5 min incubation; QPatch-16; holding −90 mV, 50 ms pulse to +10 mV every 20 s; 0.1% BSA; mean ± SEM
Procedure: as §1, §4, §3

rTRPV1 = target: T2, rTRPV1 (Rattus norvegicus, UniProt O35433); assay: Calcium responses in TRPV1-HEK cells (FLIPR); format: cell-based
T2 construct: expressed in transfected cells
T2 sequence (O35433 whole entry): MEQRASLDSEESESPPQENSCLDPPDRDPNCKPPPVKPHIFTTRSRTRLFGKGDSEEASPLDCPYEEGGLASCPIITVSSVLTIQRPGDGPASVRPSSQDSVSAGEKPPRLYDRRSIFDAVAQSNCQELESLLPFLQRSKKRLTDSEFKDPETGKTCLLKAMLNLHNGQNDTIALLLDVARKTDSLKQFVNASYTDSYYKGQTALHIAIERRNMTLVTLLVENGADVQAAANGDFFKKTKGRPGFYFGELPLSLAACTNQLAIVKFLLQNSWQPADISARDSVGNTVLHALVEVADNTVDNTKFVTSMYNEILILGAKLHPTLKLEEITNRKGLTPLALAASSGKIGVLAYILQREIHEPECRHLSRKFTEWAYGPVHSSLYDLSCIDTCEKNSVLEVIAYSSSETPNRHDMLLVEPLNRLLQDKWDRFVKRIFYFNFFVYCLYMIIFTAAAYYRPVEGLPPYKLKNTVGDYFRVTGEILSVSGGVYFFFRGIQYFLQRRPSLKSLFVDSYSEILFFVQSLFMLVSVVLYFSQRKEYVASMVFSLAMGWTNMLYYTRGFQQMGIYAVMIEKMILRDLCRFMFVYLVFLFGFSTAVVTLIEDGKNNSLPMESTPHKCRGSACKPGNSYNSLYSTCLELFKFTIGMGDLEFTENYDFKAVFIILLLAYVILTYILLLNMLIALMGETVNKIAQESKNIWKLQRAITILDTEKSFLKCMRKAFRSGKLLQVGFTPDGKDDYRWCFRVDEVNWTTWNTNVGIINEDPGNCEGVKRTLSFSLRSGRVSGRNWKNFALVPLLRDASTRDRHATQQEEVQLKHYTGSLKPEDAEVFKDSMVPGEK
Procedure: HEK293 cells stably expressing rat transient receptor potential vanilloid 1 (TRPV1) were cultured in Dulbecco’s Modified Eagle Medium (DMEM) containing 10% FBS under selection with hygromycin B (100 μg/mL), generated as previously described [16]. Cells were grown in an incubator at 37 °C with 5% CO2 and passaged every 3–4 days (at 70%–80% confluency) using TrypLE Express (Thermo Fisher Scientific, Scoresby, VIC, Australia).
HEK cells stably expressing rTRPV1 were plated 48 h before the assay on 384-well black-walled imaging plates coated with poly D-lysine (ViewPlate-384, Perkin Elmer, Victoria, Australia) at a density of 10,000–15,000 cells/well and loaded with Calcium 4 no-wash dye (Molecular Devices) diluted in PSS and incubated for 30 min at 37 °C. […] Changes in fluorescence were assessed using the FLIPR^TETRA (excitation 470–495 nm, emission 515–575 nm) every 1 s for 300 s after the addition of compounds. Fluorescence responses were quantified by the maximum increase in fluorescence calculated using ScreenWorks 3.2.0.14.
Data were plotted and analysed using GraphPad Prism, version 8.2.0. For concentration–response curves, a four-parameter Hill equation with variable Hill coefficient was fitted to the data. Data are presented as the mean ± SEM.

hNaV1.7/β1 [3] = target: T1, hNaV1.7/β1; assay: Time constant of fast inactivation (τ) at hNaV1.7 (patch-clamp); format: cell-based; conditions: holding −90 mV, 50 ms pulse to −20 mV, n = 4 cells per data point
Procedure: as §1, §2, §3

Row | Compound | IC50 (hNaV1.7/β1 [1]; 5 min incubation per concentration, QPatch-16, holding −90 mV, 50 ms pulse to −20 mV every 20 s, 0.1% BSA, mean ± SEM, n = 3–6 cells per data point, read-out: IC50 (inhibition of NaV1.7 peak current)) [µM] | shift of V1/2 of voltage dependence of activation (Δ) (hNaV1.7/β1 [2]) | inhibition of peak current at NaV1.8 (hNaV1.8/β3) [%] | activity on TRPV1 (rTRPV1; rTRPV1-HEK293, Calcium 4 dye, up to 30 μM, n = 3–5 wells per data point) | EC50 (hNaV1.7/β1 [1]; abstract, QPatch-16, holding −90 mV, 50 ms pulse to −20 mV, read-out: EC50 as given in abstract: delays fast inactivation and inhibits NaV1.7 peak current) [µM] | pharmacology at NaV1.7 (activator / inhibitor) (hNaV1.7/β1 [1]; authors' summary in discussion) | activity at TRPV1 (rTRPV1; rTRPV1-HEK293, data not shown, concentration not given) | EC50 (hNaV1.7/β1 [3]; 5 min incubation, τ from single exponential fit, read-out: estimated EC50 (delay of fast inactivation)) [µM] | effect on fast inactivation (hNaV1.7/β1 [3])
1 | CSCC[C@@H]1NC(=O)[C@H](CCCCN)NC(=O)[C@@H]2CSSC[C@@H]3NC(=O)CNC(=O)CNC(=O)[C@H](CC(C)C)NC(=O)[C@H](Cc4ccccc4)NC(=O)[C@H](Cc4ccc(O)cc4)NC(=O)[C@H](CCCNC(=N)N)NC(=O)[C@@H](NC(=O)CNC(=O)CN)CSSC[C@H](NC(=O)[C@H](CSSC[C@@H](C(=O)N[C@@H](C)C(=O)N[C@@H](Cc4c[nH]c5ccccc45)C(=O)N[C@@H](CC(=O)O)C(=O)NCC(=O)N[C@H](C(=O)N[C@@H](Cc4ccccc4)C(N)=O)[C@@H](C)O)NC(=O)[C@H](Cc4ccc(O)cc4)NC(=O)[C@H](CC(N)=O)NC(=O)[C@H](CC(C)C)NC(=O)CNC1=O)NC(=O)[C@H](CC(=O)O)NC(=O)[C@H](CO)NC(=O)[C@H](Cc1c[nH]cn1)NC(=O)[C@H](CCC(=O)O)NC(=O)[C@H](CO)NC3=O)C(=O)N[C@@H](CCC(=O)O)C(=O)N[C@@H](Cc1c[nH]cn1)C(=O)N[C@@H](CC(C)C)C(=O)N[C@@H](CCCNC(=N)N)C(=O)N2 [Pme1a] (H-GGCRYFLGGCSEHSDCCEHLRCKMGLNYCAWDGTF-NH2; disulfide 3-17, 10-22, 16-29 (inferred); N-terminus assumed) | 0.334 ± 0.114 | +11.6 mV | 21 ± 2 | no activity | – | – | – | – | –
2 | CSCC[C@@H]1NC(=O)[C@H](Cc2ccccc2)NC(=O)[C@H](CCCCN)NC(=O)[C@H]([C@@H](C)O)NC(=O)[C@@H](NC(=O)CN)CSSC[C@@H]2NC(=O)[C@@H]3CSSC[C@@H](C(=O)NCC(=O)N[C@@H](Cc4c[nH]c5ccccc45)C(=O)N[C@@H](CC(=O)O)C(=O)NCC(=O)N[C@H](C(=O)N[C@@H](Cc4ccccc4)C(N)=O)[C@@H](C)O)NC(=O)[C@H](Cc4c[nH]c5ccccc45)NC(=O)[C@H](CCCCN)NC(=O)[C@H](Cc4ccc(O)cc4)NC(=O)[C@H](CCCCN)NC(=O)[C@H](Cc4ccc(O)cc4)NC(=O)[C@H](CSSC[C@H](NC(=O)[C@H](CO)NC(=O)CNC1=O)C(=O)N[C@@H](CCCCN)C(=O)N[C@@H]([C@@H](C)O)C(=O)N[C@@H](CC(=O)O)C(=O)N[C@@H](C)C(=O)N[C@@H](CC(=O)O)C(=O)N3)NC(=O)[C@H](CCC(=O)O)NC(=O)[C@H](CC(C)C)NC(=O)[C@H](Cc1c[nH]cn1)NC(=O)[C@H](CCC(=O)O)NC2=O [Pme2a] (H-GCTKFMGSCKTDADCCEHLECYKYKWCGWDGTF-NH2; disulfide 2-16, 9-21, 15-27 (inferred); N-terminus assumed) | – | – | 22 ± 4 | – | > 10 | NaV1.7 channel activator | no activity | > 10 | concentration-dependently delaying-fast inactivation; also recorded: concentration-dependently increases the time constant of fast inactivation (τ)
3 | CSCC[C@@H]1NC(=O)[C@H](Cc2ccccc2)NC(=O)[C@H](CCCCN)NC(=O)[C@H]([C@@H](C)O)NC(=O)[C@@H](NC(=O)CN)CSSC[C@@H]2NC(=O)[C@@H]3CSSC[C@@H](C(=O)NCC(=O)N[C@@H](Cc4c[nH]c5ccccc45)C(=O)N[C@@H](CC(=O)O)C(=O)NCC(=O)N[C@H](C(=O)N[C@@H](Cc4ccccc4)C(N)=O)[C@@H](C)O)NC(=O)[C@H](Cc4c[nH]c5ccccc45)NC(=O)[C@H](CCCCN)NC(=O)[C@H](Cc4ccc(O)cc4)NC(=O)[C@H](CCCCN)NC(=O)[C@H](Cc4ccc(O)cc4)NC(=O)[C@H](CCCCN)NC(=O)[C@H](CSSC[C@H](NC(=O)[C@H](CO)NC(=O)CNC1=O)C(=O)N[C@@H](CCCCN)C(=O)N[C@@H]([C@@H](C)O)C(=O)N[C@@H](CC(=O)O)C(=O)N[C@@H](C)C(=O)N[C@@H](CC(=O)O)C(=O)N3)NC(=O)[C@H](CCC(=O)O)NC(=O)[C@H](CC(C)C)NC(=O)[C@H](Cc1c[nH]cn1)NC(=O)[C@H](CCC(=O)O)NC2=O [[+22K]Pme2a] (H-GCTKFMGSCKTDADCCEHLECKYKYKWCGWDGTF-NH2; disulfide 2-16, 9-21, 15-28 (inferred); N-terminus assumed) | – | – | – | – | – | – | – | – | removed the effect of the native peptide on fast inactivation; also recorded: without the delay in fast activation seen with the native peptide
